We go through 17 molecules from patent publication US20160242416A1, “FUNGICIDAL ISOXAZOLINE CARBINOLS” (E I DU PONT DE NEMOURS AND COMPANY, priority 2015, published 2016).

Molecules are shown by their SMILES.

Assay [1] concerns Erysiphe graminis f sp. tritici. Description: Test G: wheat powdery mildew, preventive spray on wheat seedlings. Particulars: 100 = 100% disease control; for Test G rating (% disease control): 10 ppm, wheat powdery mildew, 0 = no control; for Test G disease control rating: 10 ppm test solution, 0 = no control relative to controls.
Assay [2] concerns Zymoseptoria tritici. Put plainly: Test E: wheat leaf blotch, preventive spray on wheat seedlings. Particulars: 100 = 100% disease control; for Test E rating (% disease control): 10 ppm, wheat leaf blotch, 0 = no control; for Test E disease control rating: 10 ppm test solution, 0 = no control relative to controls.
Assay [3] relates to Stagonospora nodorum. Put plainly: Test D: wheat glume blotch, preventive spray on wheat seedlings. Particulars: 100 = 100% disease control; for Test D rating (% disease control): 10 ppm, wheat glume blotch, 0 = no control; for Test D disease control rating: 10 ppm test solution, 0 = no control relative to controls.
The test system of assay [4] is Botrytis cinerea. Description: Test B: gray mold, preventive spray on tomato seedlings. The settings on record: 100 = 100% disease control; for Test B rating (% disease control): 10 ppm, gray mold on tomato, 0 = no control; for Test B disease control rating: 10 ppm test solution, 0 = no control relative to controls.
Assay [5] deals with Puccinia recondita f sp. tritici. Put plainly: Test F: wheat leaf rust, preventive spray on wheat seedlings. The settings on record: 100 = 100% disease control; for Test F rating (% disease control): 10 ppm, wheat leaf rust, 0 = no control; for Test F disease control rating: 10 ppm test solution, 0 = no control relative to controls.

Regarding `CC(C)(C)C(O)(Cn1cncn1)C1=NOC(CSc2ccc(Cl)cc2)C1` (single isomer, unassigned) [Compound 27], in assay [1], the “Test G rating (% disease control)” value is listed as 89%. In assay [2], the “Test E rating (% disease control)” value was 0%. The “Test D rating (% disease control)” value in assay [3] amounted to 59%. Further, the “Test B rating (% disease control)” value in assay [4] is given as 51%. Moreover, the “Test F rating (% disease control)” value in assay [5] was 68%.
For `OC(Cn1cncn1)(C1=NOC(COCc2ccccc2)C1)c1ccc(Cl)cc1` (single isomer, unassigned) [Compound 57], in that order: 97%, 0%, 0%, 0% and 97%.
`CC(C)(C)C(O)(Cn1cncn1)C1=NOC(COc2cccc(Br)c2)C1` (single isomer, unassigned) [Compound 232]: the “Test G disease control rating” value in assay [1] amounted to 100%. For the same molecule, the “Test E disease control rating” value in assay [2] came out at 41%. In addition, the “Test D disease control rating” value in assay [3] is recorded as 99%. Moreover, the “Test B disease control rating” value in assay [4] is on record as 98%. Moreover, in assay [5], the “Test F disease control rating” value was determined as 100%.
As for `CC(C)(C)C(O)(Cn1cncn1)C1=NOC(COc2ncc(Cl)cn2)C1` (single isomer, unassigned) [Compound 99], the “Test G rating (% disease control)” value in assay [1] came to 96%. In addition, the “Test E rating (% disease control)” value in assay [2] stood at 0%. The “Test D rating (% disease control)” value in assay [3] was 63%. For the same molecule, the “Test B rating (% disease control)” value in assay [4] is reported as 0%. Moreover, the “Test F rating (% disease control)” value in assay [5] is recorded as 95%.
For the molecule `CC(C)(C)C(O)(Cn1cncn1)C1=NOC(c2ccc(-n3cc(Br)cn3)cc2)C1` (single isomer, unassigned) [Compound 8], the “Test G rating (% disease control)” value in assay [1] was determined as 100%. Besides, the “Test E rating (% disease control)” value in assay [2] is listed as 0%. In addition, in assay [3], the “Test D rating (% disease control)” value came out at 0%. Besides, the “Test B rating (% disease control)” value in assay [4] is 0%. Moreover, the “Test F rating (% disease control)” value in assay [5] is 0%.
For the molecule `CC(C)(C)C(O)(Cn1cncn1)C1=NOC(COc2cccc(Cl)c2)C1` (single isomer, unassigned) [Compound 231], the “Test G disease control rating” value in assay [1] is 99%. For the same molecule, the “Test E disease control rating” value in assay [2] worked out at 6%. Moreover, in assay [3], the “Test D disease control rating” value is recorded as 100%. The “Test B disease control rating” value in assay [4] was 80%. In addition, in assay [5], the “Test F disease control rating” value is 100%.
On to `OC(Cn1cncn1)(C1=NOC(c2ccc(-n3ccc(C(F)(F)F)n3)cc2)C1)c1ccc(Cl)cc1` (single isomer, unassigned) [Compound 149], for which the “Test G rating (% disease control)” value in assay [1] is 76%. Besides, in assay [2], the “Test E rating (% disease control)” value is listed as 38%. In addition, the “Test D rating (% disease control)” value in assay [3] is given as 0%. Moreover, the “Test B rating (% disease control)” value in assay [4] was found to be 0%. Moreover, the “Test F rating (% disease control)” value in assay [5] was 36%.
As for `OC(Cn1cncn1)(C1=NOC(c2ccc(F)cc2)C1)c1ccc(Cl)cc1` (single isomer, unassigned) [Compound 159], in assay [1], the “Test G rating (% disease control)” value is 97%. Further, the “Test E rating (% disease control)” value in assay [2] is on record as 0%. Also, the “Test D rating (% disease control)” value in assay [3] is 0%. Moreover, the “Test B rating (% disease control)” value in assay [4] is recorded as 0%. The “Test F rating (% disease control)” value in assay [5] came out at 0%.
Turning to `CC(C)(C)C(O)(Cn1cncn1)C1=NOC(COc2ccc(-n3cccn3)cc2)C1` (single isomer, unassigned) [Compound 28], the “Test G rating (% disease control)” value in assay [1] was determined as 99%. For the same molecule, the “Test E rating (% disease control)” value in assay [2] was found to be 0%. Moreover, the “Test D rating (% disease control)” value in assay [3] amounted to 39%. For the same molecule, the “Test B rating (% disease control)” value in assay [4] was 24%. Moreover, the “Test F rating (% disease control)” value in assay [5] is reported as 0%.
Consider `CC(C)(C)C(O)(Cn1cncn1)C1=NOC(CCc2ccc(C(F)(F)F)cc2)C1` (single isomer, unassigned) [Compound 13], for which the “Test G rating (% disease control)” value in assay [1] is listed as 100%. In assay [2], the “Test E rating (% disease control)” value is on record as 98%. Further, the “Test D rating (% disease control)” value in assay [3] stood at 100%. Also, in assay [4], the “Test B rating (% disease control)” value turned out to be 0%. The “Test F rating (% disease control)” value in assay [5] stood at 100%.
Regarding `CC(C)(C)C(O)(Cn1cncn1)C1=NOC(COc2ccc(Cl)cc2)C1` (stereo not drawn) [Compound 175, α-[5-[(4-chlorophenoxy)methyl]-4,5-dihydro-3-isoxazolyl]-α-(1,1-dimethylethyl)-1H-1,2,4-triazole-1-ethanol], the “Test G rating (% disease control)” value in assay [1] stood at 100%. The “Test E rating (% disease control)” value in assay [2] came out at 1%. The “Test D rating (% disease control)” value in assay [3] was found to be 100%. For the same molecule, the “Test B rating (% disease control)” value in assay [4] came to 0%. The “Test F rating (% disease control)” value in assay [5] was found to be 100%.
`C[S+]([O-])c1ccc(C2CC(C(O)(Cn3cncn3)c3ccc(Cl)cc3)=NO2)cc1` (single isomer, unassigned) [Compound 111]: the “Test G rating (% disease control)” value in assay [1] amounted to 98%. In addition, the “Test E rating (% disease control)” value in assay [2] came to 9%. Besides, the “Test D rating (% disease control)” value in assay [3] is 0%. For the same molecule, the “Test B rating (% disease control)” value in assay [4] is listed as 0%. Also, in assay [5], the “Test F rating (% disease control)” value came out at 100%.
For the molecule `OC(Cn1cncn1)(C1=NOC(COC2CCCCC2)C1)c1ccc(Cl)cc1` (single isomer, unassigned) [Compound 89], the “Test G rating (% disease control)” value in assay [1] came to 76%. Further, the “Test E rating (% disease control)” value in assay [2] was 0%. Besides, in assay [3], the “Test D rating (% disease control)” value came out at 0%. The “Test B rating (% disease control)” value in assay [4] is reported as 0%. The “Test F rating (% disease control)” value in assay [5] was 0%.
With `CC(C)(C)C(O)(Cn1cncn1)C1=NOC(COc2ccc(Br)cc2)C1` (single isomer, unassigned) [Compound 183], in assay [1], the “Test G rating (% disease control)” value is recorded as 100%. Also, the “Test E rating (% disease control)” value in assay [2] stood at 35%. In addition, the “Test D rating (% disease control)” value in assay [3] is given as 99%. Besides, in assay [4], the “Test B rating (% disease control)” value is on record as 24%. In addition, in assay [5], the “Test F rating (% disease control)” value is on record as 100%.
Regarding `CS(=O)(=O)c1ccc(C2CC(C(O)(Cn3cncn3)c3ccc(Cl)cc3)=NO2)cc1` (single isomer, unassigned) [Compound 113], the “Test G rating (% disease control)” value in assay [1] is 98%. Also, the “Test E rating (% disease control)” value in assay [2] is listed as 9%. For the same molecule, the “Test D rating (% disease control)” value in assay [3] is listed as 0%. The “Test B rating (% disease control)” value in assay [4] worked out at 0%. Also, the “Test F rating (% disease control)” value in assay [5] stood at 100%.
For the molecule `CC(C)(C)C(O)(Cn1cncn1)C1=NOC(COc2ccc(OC(F)(F)F)cc2)C1` (single isomer, unassigned) [Compound 25], the “Test G rating (% disease control)” value in assay [1] was 100%. For the same molecule, the “Test E rating (% disease control)” value in assay [2] is listed as 0%. Besides, the “Test D rating (% disease control)” value in assay [3] is on record as 59%. The “Test B rating (% disease control)” value in assay [4] is 0%. Also, the “Test F rating (% disease control)” value in assay [5] was determined as 99%.
For the molecule `OC(Cn1cncn1)(C1=NOC(c2ccc(Cl)cc2)C1)c1ccc(Oc2ccccc2)cc1` (mixture of isomers) [Compound 152], the “Test G rating (% disease control)” value in assay [1] amounted to 87%. For the same molecule, the “Test E rating (% disease control)” value in assay [2] is 34%. The “Test D rating (% disease control)” value in assay [3] is 0%. Besides, the “Test B rating (% disease control)” value in assay [4] turned out to be 0%. Further, in assay [5], the “Test F rating (% disease control)” value came out at 50%.
